Several values for one entry are separate records, joined by “and”; a condition that tells them apart may be missing. Equal entries are not always repeated.
Columns and labels:
LDL-C [1] = experiment: PROSPER study: lipid (LDL-C, HDL-C, triglyceride) response to Pravastatin 40 mg/day, overall and by SLCO1B1/LXRA genotype; type: in vivo, human; conditions: for Adjusted mean percent LDL-cholesterol reduction: mean ± S.D.
Description: The effect of SNPs at nucleotide positions 388 (e.g. A>G) and 625 (e.g. T>C) of the SLCO1B1 gene and also at nucleotide position −115 (e.g. G>A) of the LXRA gene on responsiveness to Pravastatin in subjects of various genotypes was assessed by analyzing the correlation of different SNP genotypes with the 6 month and 12 month changes in TC and LDL-C levels in treated subjects, as shown below in Table 5. Neither the presence of the LXRA SNP at nucleotide position −115 nor the SLCO1B1 SNP at nucleotide position 388 were associated with lipid lowering. […] The percentage reductions in LDL-C given are for the 6 month time point (Table 5).
Biochemical and DNA analysis: Total cholesterol (TC), HDL-C, and triglycerides were assessed in subjects after an overnight fast at 6 months, and at 12 months, and LDL-C was calculated by the Friedewald formula, as previously described (Shepherd J et al. (2002) Lancet 360:1623-30). Apolipoprotein B (apoB) was measured only at baseline as described. DNA was isolated from cells from this cohort, and DNA from 5,783 subjects participating in this study was also available. ApoE phenotype was determined on plasma samples by Western blotting, using the method of Havekes et al. in the central laboratory of the Royal Infirmary in Glasgow, Scotland (Havekes L M et al. A rapid micro method for apolipoprotein E phenotyping directly in serum. J Lipid Res (1987) 28:455-63). Subjects were classified according to the presence of apoE2, apoE3, or apoE4 bands on gel blotting (Havekes L M et al. (1987) J Lipid Res 28:455-63).
DNA analysis was conducted by genotyping two single nucleotide polymorphisms (SNPs) of the SLCO1B1 gene—388A>G (rs2306283) and 511T>C (rs4149056)—using standard methods (e.g. Taq Man® SNPs genotyping assays by Applied Biosystems, Foster City, Calif.). The custom assay identification numbers for these analyses were C—1901697—20 and C—30633906—10, respectively. Additionally, DNA analysis was also conducted by genotyping one SNP of the LXRA gene, rs12221497, and the custom assay identification number for this analysis was C—30887860—10. The end points were ascertained after PCR amplification was performed using standard methods (e.g. an Applied Biosystems 7900 HT Sequence Detection System). Genotypes with quality scores below the 95% threshold were repeated and 5% blinded replicates for genotype determinations were performed. In addition, a total of 119 subjects (˜2.2% of the sample size) who had the apoE4/2 phenotype were excluded from these analyses, as well as 246 subjects who had missing apoE phenotype. These subjects were excluded because apoE phenotype or genotype can affect statin-induced LDL-C lowering response, as well as CHD risk, in an allele dependent manner. For example, subjects carrying the apoE4 allele having the greatest response in terms of LDL-C lowering and the highest CHD risk, however, apoE2 and apoE4 phenotype have opposite effects in this regard.
Statistical analysis: Observed genotype frequencies were compared with those expected under Hardy-Weinberg equilibrium using a χ2 test. For data analysis, multivariable analysis of covariance (ANCOVA) was performed to detect associations between the lipoprotein levels at baseline as well as changes in response to the treatment with Pravastatin at 6 months and with SLCO1B1 genotypes adjusted for gender, body mass index, age, alcohol, smoking, diabetes, apoE phenotype, and country of origin, since subjects participating in PROSPER were either from Scotland, Ireland, or the Netherlands. […]

[2] = tested on: elderly individuals at risk of vascular disease; experiment: PROSPER study: incidence of CHD death or nonfatal MI on trial; type: in vivo, human; conditions: for Pravastatin HR, hazards ratio (95% confidence intervals), CHD death or nonfatal MI: Pravastatin group
Description: Statistical analysis: Observed genotype frequencies were compared with those expected under Hardy-Weinberg equilibrium using a χ2 test. For data analysis, multivariable analysis of covariance (ANCOVA) was performed to detect associations between the lipoprotein levels at baseline as well as changes in response to the treatment with Pravastatin at 6 months and with SLCO1B1 genotypes adjusted for gender, body mass index, age, alcohol, smoking, diabetes, apoE phenotype, and country of origin, since subjects participating in PROSPER were either from Scotland, Ireland, or the Netherlands. Prevalence at baseline of myocardial infarction (MI) and all types of vascular disease (history of angina, claudication, MI, stroke, transient ischemic attack, peripheral arterial disease surgery, or amputation for vascular disease more than 6 months before study entry) at baseline, as well as incidence of primary endpoints (CHD death or nonfatal MI or fatal non-fatal stroke), and all cardiovascular events (primary endpoints and coronary artery bypass grafting, coronary angioplasty, and peripheral artery surgery or angioplasty), were compared between carriers of different SLCO1B1 SNP genotypes using multivariable logistic regression analysis in all subjects and stratified by gender and treatment. All analyses were fully adjusted for age, gender, country, history of vascular disease, body mass index, history of diabetes, as well as history of hypertension, alcohol use, current smoking, and apoE phenotype. To evaluate the modifying effects of genotypes and gender on the response to treatment, gene-treatment and gene-gender interaction terms were added to the regression models. Lewontin's D value was calculated to assess the linkage disequilibrium (LD) between the two SNPs of interest (Lewontin R C. The interaction of selection and linkage. II. Optimum models. Genetics 1964; 50:757-82). There was no interaction between these SNPs and also no interaction between these SNPs and apoE genotype. All analyses were performed using SAS/STAT and SAS/Genetics [including proc haplotype procedure] (SAS Version 9.1, SAS Institute Inc., Cary, N.C.). A two-sided p<0.05 was considered statistically significant.

[3] = tested on: elderly individuals at risk of vascular disease; experiment: PROSPER study: adverse events (myalgia, rhabdomyolysis, creatine kinase)
Excerpt: In this randomized study with 5,804 subjects, 2,913 subjects received placebo and 2,891 received Pravastatin (three of whom refused medication). […] This adverse event rate was very similar to the placebo group where 116 subjects discontinued medication because of non-fatal adverse events. […] At the 3 month visit there no subjects that had creatine kinase levels >10 the upper limits of normal.
Study Subjects: The results and the methodology used in the PROspective Study of Pravastatin in the Elderly at Risk (PROSPER) study have been previously described (see e.g., Shepherd J et al. PROspective Study of Pravastatin in the Elderly at Risk. Pravastatin in elderly individuals at risk of vascular disease (PROSPER): a randomized controlled trial. Lancet (2002) 360:1623-30 and Shepherd J et al. The design of a prospective study of Pravastatin in the Elderly at Risk (PROSPER). PROSPER Study Group. PROspective Study of Pravastatin in the Elderly at Risk. Am J Cardiol (1999) 84:1192-97).
In the present study 2,804 men and 3,000 women between the ages of 70 and 82 with pre-existing vascular disease (n=2,404) or at least one of three major vascular risk factors (diabetes n=575, smoking n=1,433, or hypertension n=3,360) were randomized to Pravastatin 40 mg/day (n=2,891) or placebo (n=2,913) and followed up on for 3.2 years, on average. […] This effect translates into an estimated 30% risk reduction in CHD events over 5 years, which is consistent with other statin trials. […] For subjects that were judged to have good compliance (i.e. taking medication more than 75% of the time), these alterations on the lipid levels were even greater: −34% […], +5% (increased HDL-C), and −13% (decreased triglycerides), respectively. […] Lipid levels were similar at onset of the study in subjects randomized to Pravastatin or placebo.

[4] = single oral dose of 40 mg, 32 subjects; cited from earlier work
[5] = 16 healthy volunteers, multiple-dose; cited from earlier work
LDL-C [6] = experiment: PROSPER study: lipid (LDL-C, HDL-C, triglyceride) response to Pravastatin 40 mg/day, overall and by SLCO1B1/LXRA genotype; type: in vivo, human; conditions: mean ± S.D.
[7] = subjects with good compliance (medication more than 75% of the time)

For `CC[C@H](C)C(=O)O[C@H]1C[C@H](O)C=C2C=C[C@H](C)[C@H](CC[C@@H](O)C[C@@H](O)CC(=O)O)[C@H]21` [Pravastatin, pravastatin], the “Adjusted mean percent LDL-cholesterol reduction” value (LDL-C [1]; 6 months, LXRA 115 G > A genotype AA) was −37.4 ± 10.9%, the “Adjusted mean percent LDL-cholesterol reduction” value (LDL-C [1]; 6 months, LXRA 115 G > A genotype GA) was −36.4 ± 10.7% and the “Adjusted mean percent LDL-cholesterol reduction” value (LDL-C [1]; 6 months, LXRA 115 G > A genotype GG) was −36.6 ± 10.7%. For the same compound, the “Adjusted mean percent LDL-cholesterol reduction” value (LDL-C [1]; 6 months, SLCO1B1 388 A > G genotype AA) was −36.7 ± 10.5%, the “Adjusted mean percent LDL-cholesterol reduction” value (LDL-C [1]; 6 months, SLCO1B1 388 A > G genotype AG) was −36.6 ± 10.7% and the “Adjusted mean percent LDL-cholesterol reduction” value (LDL-C [1]; 6 months, SLCO1B1 388 A > G genotype GG) was −36.2 ± 11.6%. The “Adjusted mean percent LDL-cholesterol reduction” value (LDL-C [1]; 12 months, LXRA 115 G > A genotype AA) was −35.3 ± 11.2%, the “Adjusted mean percent LDL-cholesterol reduction” value (LDL-C [1]; 12 months, LXRA 115 G > A genotype GA) was −35.1 ± 11.6% and the “Adjusted mean percent LDL-cholesterol reduction” value (LDL-C [1]; 12 months, LXRA 115 G > A genotype GG) was −35.5 ± 12.1%. The “Adjusted mean percent LDL-cholesterol reduction” value (LDL-C [1]; 12 months, SLCO1B1 388 A > G genotype AA) was −35.9 ± 11.2%, the “Adjusted mean percent LDL-cholesterol reduction” value (LDL-C [1]; 12 months, SLCO1B1 388 A > G genotype AG) was −35.3 ± 12.3% and the “Adjusted mean percent LDL-cholesterol reduction” value (LDL-C [1]; 12 months, SLCO1B1 388 A > G genotype GG) was −34.3 ± 12.8%. The “Adjusted mean percent LDL-cholesterol reduction” value (LDL-C [1]; 12 months, SLCO1B1 625 T > C genotype CC) was −31.8 ± 11.7%, the “Adjusted mean percent LDL-cholesterol reduction” value (LDL-C [1]; 12 months, SLCO1B1 625 T > C genotype TC) was −34.6 ± 12.5% and the “HDL-C increase versus baseline” value (LDL-C [1]; subjects placed on Pravastatin) was 5%. For the same compound, the “triglycerides decrease versus baseline” value (LDL-C [1]; subjects placed on Pravastatin) was 12%, the “alteration printed as risk reduction for CHD” value (LDL-C [1]; [7]) was −34% and the decreased triglycerides (LDL-C [1]; [7]) was −13%. The “increased HDL-C” value (LDL-C [1]; [7]) was “+5%”, the “Pravastatin HR, hazards ratio (95% confidence intervals), CHD death or nonfatal MI” value ([2]; 388 A > G genotype AA (reference genotype)) was 1 and the “Pravastatin HR, hazards ratio (95% confidence intervals), CHD death or nonfatal MI” value ([2]; 388 A > G genotype AG versus AA) was 1.13. For the same compound, the “Pravastatin HR, hazards ratio (95% confidence intervals), CHD death or nonfatal MI” value ([2]; 388 A > G genotype GG versus AA) was 1.12, the “Pravastatin HR, hazards ratio (95% confidence intervals), CHD death or nonfatal MI” value ([2]; 625 T > C genotype CC versus TT) was 0.64 and the “Pravastatin HR, hazards ratio (95% confidence intervals), CHD death or nonfatal MI” value ([2]; 625 T > C genotype TC versus TT) was 0.99. For the same compound, the “Pravastatin HR, hazards ratio (95% confidence intervals), CHD death or nonfatal MI” value ([2]; 625 T > C genotype TT (reference genotype)) was 1, the “estimated risk reduction in CHD events” value ([2]; over 5 years, translated from the 3.2 year effect) was 30% and the “reported cases of myalgia” value ([3]; both, human, in vivo, 3.2 years) was 36 cases. For the same compound, the “association of the SLCO1B1 rs4149056 SNP with myalgia” value ([3]; in vivo) was “no association”, the “reported cases of rhabdomyolysis” value ([3]; in vivo) was “no reported cases” and the “subjects who discontinued medication because of non-fatal adverse events” value ([3]; of 2,888 subjects started on Pravastatin, 116 in placebo group) was 107 subjects. The “areas under the curve of pravastatin blood levels, CC versus wildtype TT SLCO1B1 genotype” value [4] was “significantly greater”, the “plasma pravastatin levels with SLCO1B1 haplotype as compared to other haplotypes” value [5] was “doubling” and the “Adjusted mean percent LDL-cholesterol reduction” value (LDL-C [6]; 6 months, SLCO1B1 625 T > C genotype CC, Pravastatin 40 mg/day) was −31.8% and −31.8 ± 12.8%. The “Adjusted mean percent LDL-cholesterol reduction” value (LDL-C [6]; 6 months, SLCO1B1 625 T > C genotype TC, Pravastatin 40 mg/day) was −36.0% and −36.0 ± 10.4%, the “Adjusted mean percent LDL-cholesterol reduction” value (LDL-C [6]; 6 months, SLCO1B1 625 T > C genotype TT, Pravastatin 40 mg/day) was −37.0% and −37.0 ± 10.8% and the “Adjusted mean percent LDL-cholesterol reduction” value (LDL-C [6]; 12 months, SLCO1B1 625 T > C genotype TT) was −35.9 ± 11.8%.

Reference: patent US9198890B2, “Compositions and methods for treating and preventing coronary heart disease” (priority 2011, dated 2015)
